Measured values as given in patent US10493099B2, “Compositions containing arsenic and their use in methods of treatment” (Eupharma Pty Ltd, priority 2015, dated 2019).

How the values were obtained:
[1] = cited from earlier work
[2] = Dissolution studies of arsenic salts in 100 mL water with stirring at room temperature (pH 7 and pH 1-2); type: physicochemical; details: for Dissolution Time at pH 1-2 / Final pH after dissolution / Dissolution Time at pH 7: 100 mL, stirring, room temperature
[3] = Trial 1: test dissolution of arsenic trioxide solely in sodium bicarbonate solution; type: physicochemical; details: 50 mg in 2540 mg sodium bicarbonate / approximately 27.2 mls water, with heating
Method: 2540 mg of Sodium Bicarbonate was dissolved in approximately 27.2 mls water (dissolved in less than 5 minutes). 50 mg Arsenic Trioxide was then added to this bicarbonate solution.

[4] = Dissolution of arsenic trioxide in 0.1M NaOH (pH 13); type: physicochemical
Method: A further dissolution experiment was conducted in a solution of 0.1M NaOH (pH 13) and, as expected, more arsenic trioxide could be dissolved with a 100% level reached between 15-20 minutes as indicated in the table below.

[5] = Dissolution of 1 mg arsenic trioxide capsule in 0.1M HCl and purified water with 0.5% BKC; type: physicochemical; details: 1 mg capsule RX500950.01, 500 ml medium, 37° C., paddle 50 rpm
Method: To manufacture the components for insertion into the capsule all ingredients were sieved through a 500 μm sieve into a sealable jar and blended for 20 minutes in a tumble blender. The blended powder was filled into the Size 4 white hard gelatin capsules at a fill weight of 140 mg.
For the dissolution experiments the medium was 0.1M HCl and purified water with a volume of 500 ml also containing 0.5% benzalkonium chloride (BKC) at 37° C. The paddle stir speed was 50 rpm. The capsule shell disrupted within three minutes and all contents were expelled in less than five minutes. Only 5% arsenic trioxide was dissolved after 20 minutes. Even after 19 hours only 60% was dissolved. The presence of the citric acid reduced the pH of the medium from ˜8.0 to ˜7.3. Given the anticipated increase in solubility at a higher pH, these experiments were repeated at a higher pH as indicated in the tables below wherein the mean and range values represented percentage dissolution of the arsenic trioxide.

[6] = all three mediums: simulated gastric fluid pH 1.24, pH 4.5, pH 7.0; 150 mls, 37° C., spin bar
Method: 100 mg of arsenic trioxide was dissolved in 10 mL of 0.5M NaOH with heat (<ten minutes). 250 mg Sodium Carbonate was then added (dissolves almost straight away) and excess water evaporated.
Dissolution experiments were then carried out on the AC01 at 3 different pH levels. […] Prior to addition of the capsules 150 mls of the dissolution solution was heated to 37° C. and the solution contained a spin bar at a speed of 2. The appropriate capsule was then added.

[7] = not dissolved within the time given

O=C([O-])O.[Na+] [Sodium Bicarbonate]
pH 0.1M solution [1]: 8.3

O=[As][O-].[Na+] [Sodium meta arsenite, sodium meta arsenite]
Dissolution Time at pH 1-2 [2]: 55 seconds - Final pH after
Final pH after dissolution ([2]; dissolution at pH 1-2): dissolution = 1.27
Final pH after dissolution ([2]; dissolution at pH 7): pH after dissolution = 10.2
Time to dissolve at pH 1-2 ([2]; pH 1-2): less than one
Time to dissolve at pH 7 ([2]; pH 7): less than 2 minutes

Arsenic trioxide
Dissolution in sodium bicarbonate solution [3]: would not dissolve even with heating
Time at which 100% dissolution level is reached [4]: 15 to 20 min
% Recovered (weight Corrected) Mean ([4]; 5 minutes): 12%
% Recovered (weight Corrected) Mean ([4]; 10 minutes): 65%
% Recovered (weight Corrected) Mean ([4]; 15 minutes): 96%
% Recovered (weight Corrected) Mean ([4]; 20 minutes): 109%
% Recovered (weight Corrected) Mean ([4]; 25 minutes): 116%
% Recovered (weight Corrected) Mean ([4]; 30 minutes): 114%
Dissolution Time at pH 1-2 [2, 7]: Not dissolved in 3 hours
Dissolution Time at pH 7 [2, 7]: Not dissolved in 3 hours
arsenic trioxide dissolved ([5]; after 20 minutes): 5%
arsenic trioxide dissolved ([5]; after 19 hours): 60%

Sodium arsenic carbonate [AC01]
Dissolution Time at pH 1-2 [2]: <5-10 seconds - Final pH
Dissolution Time at pH 7 [2]: 40 seconds - Final pH after
Final pH after dissolution ([2]; dissolution at pH 1-2): after dissolution = 1.13
Final pH after dissolution ([2]; dissolution at pH 7): dissolution = pH 8.95
Time to dissolution of powder from capsule [6]: less than two
